Entries after “also recorded” stand apart in the source; their conditions may differ.
Key:
[1] = system: MglA/SspA regulon; assay type: cell-based, Francisella tularensis LVS
[2] = system: mammalian cells
[3] = system: F. tularensis LVS; assay type: cell-based, Francisella tularensis
[4] = system: Acinetobacter baumannii; set-up: species or system Galleria mellonella; settings: in vivo
[5] = system: LpnA; assay type: cell-based, Francisella tularensis LVS
[6] = system: TNFα; assay type: cell-based
[7] = system: IglA; assay type: cell-based, Francisella tularensis LVS
[8] = system: A. baumannii; assay type: cell-based, Acinetobacter baumannii
[9] = system: IglC; assay type: cell-based, Francisella tularensis LVS
[10] = system: F. tularensis live vaccine strain (LVS); assay: microbe, parasite or virus in culture; assay type: cell-based, Francisella tularensis
[11] = system: F. tularensis LVS/pTC3D; assay type: cell-based, Francisella tularensis

C=CCc1cc2c(c(OC)c1OC)OCO2 [dillapiole]
expression of virulence factors / genes controlled by MglA/SspA (incl. FPI genes) [1]: decrease in expression of several key virulence factors; also recorded: significantly decreased expression following treatment with dillapiole | toxicity to mammalian cells [2]: not toxic to mammalian cells | bacterial growth as determined by optical density [3]: did not affect bacterial growth | rate of survival of infected wax worms [4]: significantly higher rate of survival | LpnA production [5]: unaffected | TNFα production [6]: decreased TNFα production | IglA protein expression [7]: significant reduction | A. baumannii viability in rich growth media [8]: did not diminish A. baumannii viability | IglC protein expression [9]: significant reduction | intracellular replication of F. tularensis LVS in THP-1 monocytes (CFU) [10]: sufficient to inhibit replication of F. tularensis | MIC ([10]; Francisella tularensis, read-out: minimum inhibitory concentration (MIC)): < 7 µg/mL | replication of F. tularensis in RAW 264.7 mouse macrophages [11]: sufficient to inhibit replication of F. tularensis

From patent US12109187B2, “Antimicrobial compositions and related methods” (priority 2020, dated 2024)
